Laboratory results as given in ChEMBL document CHEMBL1123319, “Synthesis and biological activity of 5-phenylselenenyl-substituted pyrimidine nucleosides” (J Med Chem, 1986).
Values belong to the compound of their own block, whether it stands above or below them. Calls of active or inactive are those of the source. No cut-off for these calls is given here.

Experiments:
HL-60 [1] = assay: Anticancer activity of the compound against ara-C resistant promyelocytic leukemia cell line that is Cyd-kinase deficient (HL-60-HGPRT-/dCK-) is determined; format: functional; conditions: Homo sapiens, read-out: ED50 (the source's name)
HL-60 [2] = assay: Anticancer activity was evaluated for the compound against parent promyelocytic leukemia cell line (HL-60-GHPRT+/dCK+); format: functional; conditions: Homo sapiens, read-out: ED50 (the source's name)
[3] = target: Thymidylate synthase (Mus musculus) (UniProt P07607); assay: Inhibition of thymidylate synthase in L1210 cells; format: cell-based
Chain of Thymidylate synthase (Mus musculus) (P07607 whole entry, looked up): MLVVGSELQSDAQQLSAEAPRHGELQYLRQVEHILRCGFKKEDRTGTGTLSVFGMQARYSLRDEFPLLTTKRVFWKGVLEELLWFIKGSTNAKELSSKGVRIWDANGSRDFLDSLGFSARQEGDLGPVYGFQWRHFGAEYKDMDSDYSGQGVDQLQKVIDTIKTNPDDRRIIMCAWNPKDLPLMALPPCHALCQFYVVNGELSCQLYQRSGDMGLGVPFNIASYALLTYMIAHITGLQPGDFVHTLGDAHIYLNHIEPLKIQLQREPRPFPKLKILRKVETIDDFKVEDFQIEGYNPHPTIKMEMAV

Mus musculus = species on record: Mus musculus; assay: (§1) Compound was tested in mice for the cytotoxicity against the herpes simplex virus type 1 (strain F) in plaque; Inactive; format: functional, organism-based
Human alphaherpesvirus 1 = assay: as §1; format: organism-based; conditions: human alphaherpesvirus 1, in vivo
[4] = target: Thymidylate synthase (Mus musculus) (UniProt P07607); assay: Compound was evaluated for its ability to inhibit tritium release using 1 uM [5-3H]-dCyd for the cellular enzyme assay.
[5] = target: Thymidylate synthase (Mus musculus) (UniProt P07607); assay: compound was evaluated for its ability to inhibit tritium release using 1 uM [5-3H]-dUrd for the cellular enzyme assay; Inactive
[6] = compound was evaluated for its ability to inhibit tritium release using 1 uM [5-3H]-dUrd for the cellular enzyme assay.; format: functional
HL-60 [7] = assay: Anticancer activity was evaluated for the compound against ara-C resistant promyelocytic leukemia cell line that is Cyd-kinase deficient (HL-60-HGPRT-/dCK-); format: functional; conditions: Homo sapiens, read-out: ID50 (the source's name)

EC50 (HL-60 [1]): 30 µM
EC50 (HL-60 [2]): 0.047 µM
ED50 [3]: 0.03 µM
Structure (SMILES): Nc1ccn([C@@H]2O[C@H](CO)[C@@H](O)[C@@H]2O)c(=O)n1 [CYTARABINE]

Structure (SMILES): O=c1[nH]c(=O)n([C@@H]2O[C@H](CO)[C@@H](O)[C@@H]2O)cc1[Se]c1ccccc1
LD50 (Mus musculus): inactive
EC50 (HL-60 [2]): 88 µM

Structure (SMILES): O=c1[nH]c(=O)n([C@H]2C[C@H](O)[C@@H](CO)O2)cc1[Se]c1ccccc1
LD50 (Human alphaherpesvirus 1): Not Active
ID50 [4]: 70 µM
ID50 [5]: inactive

Structure (SMILES): Nc1nc(=O)n([C@@H]2O[C@H](CO)[C@@H](O)[C@@H]2O)cc1[Se]c1ccccc1
ID50 [6]: 60 µM
IC50 (HL-60 [7]): 375 µM
ED50 [3]: 25 µM
